Key:
[1] = molecular target: T1, FLT3 kinase (Homo sapiens, UniProt P36888); assay: Competition binding assay, FLT3 Kd
T1 construct: made in house; host or cells: T7 phage display or HEK-293 cells
T1 sequence (P36888 27-993): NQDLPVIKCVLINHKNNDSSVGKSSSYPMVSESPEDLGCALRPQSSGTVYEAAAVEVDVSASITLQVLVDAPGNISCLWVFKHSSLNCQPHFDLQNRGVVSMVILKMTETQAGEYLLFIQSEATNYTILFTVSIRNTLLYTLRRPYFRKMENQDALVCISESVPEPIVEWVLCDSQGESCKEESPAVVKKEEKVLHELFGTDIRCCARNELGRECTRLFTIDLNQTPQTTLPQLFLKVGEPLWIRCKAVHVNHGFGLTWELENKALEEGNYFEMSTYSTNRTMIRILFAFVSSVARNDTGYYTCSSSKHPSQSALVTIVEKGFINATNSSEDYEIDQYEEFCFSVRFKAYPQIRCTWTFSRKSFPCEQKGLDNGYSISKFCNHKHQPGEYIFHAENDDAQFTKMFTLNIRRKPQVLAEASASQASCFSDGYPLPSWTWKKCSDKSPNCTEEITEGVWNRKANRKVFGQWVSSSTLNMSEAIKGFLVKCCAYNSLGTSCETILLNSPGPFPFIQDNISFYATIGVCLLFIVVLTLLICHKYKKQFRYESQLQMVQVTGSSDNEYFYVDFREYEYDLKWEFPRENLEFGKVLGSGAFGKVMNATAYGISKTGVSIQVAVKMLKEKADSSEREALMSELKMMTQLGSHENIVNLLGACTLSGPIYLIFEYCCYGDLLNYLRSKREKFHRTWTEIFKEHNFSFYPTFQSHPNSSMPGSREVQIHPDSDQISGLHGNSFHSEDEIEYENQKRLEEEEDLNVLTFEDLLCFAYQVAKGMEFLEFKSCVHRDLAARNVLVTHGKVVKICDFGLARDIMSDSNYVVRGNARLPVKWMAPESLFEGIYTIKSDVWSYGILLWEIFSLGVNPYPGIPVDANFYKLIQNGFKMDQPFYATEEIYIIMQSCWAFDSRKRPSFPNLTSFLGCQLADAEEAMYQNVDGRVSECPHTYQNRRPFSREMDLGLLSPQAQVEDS
Outline: (§1)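 Kinases, either T7 phage fusions or HEK-293-expressed and DNA-tagged, competed for immobilised biotinylated affinity ligand against test compound, 1 h at RT in binding buffer with 6 mM DTT. Bound kinase eluted with 0.5 μM free ligand and quantified by qPCR; Kd from 11-point threefold dilutions.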

[2] = molecular target: T2, KIT kinase (Homo sapiens, UniProt P10721); assay: Competition binding assay, KIT Kd
T2 construct: made in house; host or cells: T7 phage display or HEK-293 cells
T2 sequence (P10721 26-976): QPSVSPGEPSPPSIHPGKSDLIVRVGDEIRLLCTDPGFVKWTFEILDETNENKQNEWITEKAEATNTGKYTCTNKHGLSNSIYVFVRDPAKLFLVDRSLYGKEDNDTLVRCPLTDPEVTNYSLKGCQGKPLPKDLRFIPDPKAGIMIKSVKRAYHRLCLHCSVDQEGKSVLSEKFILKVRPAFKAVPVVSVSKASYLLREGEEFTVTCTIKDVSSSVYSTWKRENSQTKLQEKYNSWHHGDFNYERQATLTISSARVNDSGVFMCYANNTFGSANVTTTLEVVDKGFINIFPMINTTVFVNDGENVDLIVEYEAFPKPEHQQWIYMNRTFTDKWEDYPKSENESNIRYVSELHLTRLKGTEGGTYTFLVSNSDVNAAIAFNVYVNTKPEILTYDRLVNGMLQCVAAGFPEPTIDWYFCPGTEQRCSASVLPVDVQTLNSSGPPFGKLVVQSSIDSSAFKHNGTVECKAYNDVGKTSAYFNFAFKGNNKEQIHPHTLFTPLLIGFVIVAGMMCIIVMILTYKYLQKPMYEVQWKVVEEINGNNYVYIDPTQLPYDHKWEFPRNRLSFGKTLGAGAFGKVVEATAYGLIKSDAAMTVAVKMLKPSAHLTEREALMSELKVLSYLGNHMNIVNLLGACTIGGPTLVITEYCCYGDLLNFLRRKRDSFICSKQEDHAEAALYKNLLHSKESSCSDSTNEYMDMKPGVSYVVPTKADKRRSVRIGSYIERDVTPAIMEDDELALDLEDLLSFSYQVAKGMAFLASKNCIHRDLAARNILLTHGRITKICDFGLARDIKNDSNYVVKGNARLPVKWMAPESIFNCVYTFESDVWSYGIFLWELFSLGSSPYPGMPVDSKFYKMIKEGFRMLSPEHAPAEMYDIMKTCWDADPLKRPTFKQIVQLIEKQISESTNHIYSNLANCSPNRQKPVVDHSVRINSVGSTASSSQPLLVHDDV
Outline: as §1

[3] = molecular target: T3, CSF-1R kinase (Homo sapiens, UniProt P07333); assay: Competition binding assay, CSF-1R Kd
T3 construct: made in house; host or cells: T7 phage display or HEK-293 cells
T3 sequence (P07333 20-972): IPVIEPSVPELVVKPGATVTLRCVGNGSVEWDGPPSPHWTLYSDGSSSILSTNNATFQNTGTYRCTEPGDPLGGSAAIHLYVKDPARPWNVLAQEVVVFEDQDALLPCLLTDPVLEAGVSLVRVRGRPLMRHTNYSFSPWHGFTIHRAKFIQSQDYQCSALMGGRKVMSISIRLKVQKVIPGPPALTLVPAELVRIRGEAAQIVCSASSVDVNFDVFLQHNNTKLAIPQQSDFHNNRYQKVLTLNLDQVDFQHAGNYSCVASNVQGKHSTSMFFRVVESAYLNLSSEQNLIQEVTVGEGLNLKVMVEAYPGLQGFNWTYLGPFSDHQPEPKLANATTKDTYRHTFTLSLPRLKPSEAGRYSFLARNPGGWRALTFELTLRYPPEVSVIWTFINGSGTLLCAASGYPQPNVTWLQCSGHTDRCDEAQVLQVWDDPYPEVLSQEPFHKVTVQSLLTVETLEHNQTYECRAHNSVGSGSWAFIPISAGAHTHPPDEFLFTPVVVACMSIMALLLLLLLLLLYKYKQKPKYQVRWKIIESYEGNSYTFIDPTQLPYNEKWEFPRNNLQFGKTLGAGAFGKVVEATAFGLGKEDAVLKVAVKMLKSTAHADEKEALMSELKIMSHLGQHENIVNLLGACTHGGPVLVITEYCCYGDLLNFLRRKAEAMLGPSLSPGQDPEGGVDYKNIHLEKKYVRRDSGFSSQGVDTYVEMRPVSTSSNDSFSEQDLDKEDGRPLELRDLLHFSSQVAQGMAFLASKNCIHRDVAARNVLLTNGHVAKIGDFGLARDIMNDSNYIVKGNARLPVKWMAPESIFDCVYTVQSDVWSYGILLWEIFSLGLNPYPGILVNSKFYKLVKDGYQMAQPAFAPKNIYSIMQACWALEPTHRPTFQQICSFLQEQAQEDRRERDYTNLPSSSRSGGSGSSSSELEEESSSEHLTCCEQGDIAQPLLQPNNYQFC
Outline: as §1

[4] = system: MV4-11 cells; assay: MV4-11 cell proliferation assay (Alamar Blue); type: cell-based; settings: Homo sapiens, MV4-11, 72 h, 3 days incubation
Outline: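 Flt3-ITD MV4-11 cells were serum-starved overnight in Iscove's with 0.5% FBS, then given compound at 9 half-log concentrations (0.5% DMSO) for 3 days at 37° C. Alamar Blue reduction was read after 3 h by fluorescence (560/590 nm). IC50 is the mean of duplicates versus negative control.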

[5] = molecular target: kinase panel containing either 359 or 386 distinct kinases; assay: Selectivity score S10 from competition binding against a panel of kinases; settings: compounds at 10 μM; panel of 386 distinct kinases
Outline: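 Compounds were tested at 10 μM in competition binding against T7 phage-fused or HEK-293-expressed DNA-tagged kinases with immobilized affinity ligands, 1 h at room temperature. Bound kinase was quantified by qPCR as percent of DMSO control; S10 is the fraction of distinct kinases (mutants excluded) with POC below 10.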

SMILES	Kd [1] [nM]	Kd [2] [nM]	Kd [3] [nM]	IC50 [4] [nM]	Kinase specificty: S(10)-386 panel [5]
COc1nc(N)ccc1-c1ccc(CC(=O)Nc2cc(C(C)(C)C)on2)cc1.CS(=O)(=O)O [Example 131, 5-(4-(2-(5-tert-butylisoxazol-3-ylamino)-2-oxoethyl)phenyl)-6-methoxypyridin-2-aminium methanesulfonate]	1 to 10	10 to 100	> 500	100 to 500	A (A≦0.1)
COc1cc(-c2ccc(CC(=O)Nc3cc(C(C)(C)C)on3)cc2)cnc1N.CS(=O)(=O)O [Example 136, 5-(4-(2-(5-tert-butylisoxazol-3-ylamino)-2-oxoethyl)phenyl)-3-methoxypyridin-2-aminium methanesulfonate]	≤ 1	1 to 10	≤ 10	≤ 1	B (0.1<B≦0.2 nM)
CS(=O)(=O)O.Nc1ccc(-c2ccc(CC(=O)Nc3cc(C4(C(F)(F)F)CC4)on3)cc2)c(F)n1 [Example 137, 6-fluoro-5-(4-(2-oxo-2-(5-(1-(trifluoromethyl)cyclopropyl)isoxazol-3-ylamino)ethyl)phenyl)pyridin-2-aminium methanesulfonate]	≤ 1	1 to 10	10 to 100	≤ 1	A (A≦0.1)
CC1(c2cc(NC(=O)Cc3ccc(-c4cnc(N)c(F)c4)cc3)no2)CC1.CS(=O)(=O)O [Example 138, 3-fluoro-5-(4-(2-(5-(1-methylcyclopropyl)isoxazol-3-ylamino)-2-oxoethyl)phenyl)pyridin-2-aminium methanesulfonate]	≤ 1	≤ 1	≤ 10	≤ 1	B (0.1<B≦0.2 nM)
CS(=O)(=O)O.Nc1ccc(-c2ccc(CC(=O)Nc3cc(C4(C(F)(F)F)CC4)on3)c(F)c2)cn1 [Example 139, 5-(3-fluoro-4-(2-oxo-2-(5-(1-(trifluoromethyl)cyclopropyl)isoxazol-3-ylamino)ethyl)phenyl)pyridin-2-aminium methanesulfonate]	≤ 1	1 to 10	≤ 10	≤ 1	B (0.1<B≦0.2 nM)
CC1(c2cc(NC(=O)Cc3ccc(-c4ccc(N)nc4F)cc3)no2)COC1 [Example 140, 2-(4-(6-amino-2-fluoropyridin-3-yl)phenyl)-N-(5-(3-methyloxetan-3-yl)isoxazol-3-yl)acetamide]	≤ 1	1 to 10	≤ 10	10 to 100	A (A≦0.1)
CC(C)(C)c1cc(NC(=O)Cc2ccc(-c3cnc4[nH]c(=O)oc4c3)cc2)no1 [Example 141, N-(5-tert-butylisoxazol-3-yl)-2-(4-(2-oxo-2,3-dihydrooxazolo[4,5-b]pyridin-6-yl)phenyl)acetamide]	1 to 10	1 to 10	10 to 100	1 to 10	B (0.1<B≦0.2 nM)
CC(C)(c1cc(NC(=O)Cc2ccc(-c3ccc(N)nc3F)cc2)no1)C(F)(F)F.CS(=O)(=O)O [Example 142, 6-fluoro-5-(4-(2-oxo-2-(5-(1,1,1-trifluoro-2-methylpropan-2-yl)isoxazol-3-ylamino)ethyl)phenyl)pyridin-2-aminium methanesulfonate]	≤ 1	1 to 10	≤ 10	≤ 1	A (A≦0.1)
CS(=O)(=O)O.Nc1ccc(-c2ccc(CC(=O)Nc3cc(C4CCC4)no3)cc2)cn1 [Example 143, 5-(4-(2-((3-cyclobutylisoxazol-5-yl)amino)-2-oxoethyl)phenyl)pyridin-2-aminium methanesulfonate]	≤ 1	≤ 1	≤ 10	1 to 10	A (A≦0.1)
CC1(c2cc(NC(=O)Cc3ccc(-c4ccc(N)nc4)cc3)no2)CCC1.CS(=O)(=O)O [Example 144, 5-(4-(2-((5-(1-methylcyclobutyl)isoxazol-3-yl)amino)-2-oxoethyl)phenyl)pyridin-2-aminium methanesulfonate]	≤ 1	≤ 1	≤ 10	≤ 1	B (0.1<B≦0.2 nM)

Second part, the molecule after the results:

Kd [1] [nM]	Kd [2] [nM]	Kd [3] [nM]	IC50 [4] [nM]	Kinase specificty: S(10)-386 panel [5]	SMILES
≤ 1	1 to 10	≤ 10	≤ 1	B (0.1<B≦0.2 nM)	Nc1ccc(-c2ccc(CC(=O)Nc3cc(C4(C(F)(F)F)CCC4)on3)cc2)cn1 [Example 124, 2-(4-(6-aminopyridin-3-yl)phenyl)-N-(5-(1-(trifluoromethyl)cyclobutyl)isoxazol-3-yl)acetamide]
≤ 1	≤ 1	≤ 10	≤ 1	A (A≦0.1)	CC(C)(C)c1cc(NC(=O)Cc2ccc(-c3ccc(N)nc3)c(F)c2)no1.CS(=O)(=O)O [Example 125, 5-(4-(2-(5-tert-butylisoxazol-3-ylamino)-2-oxoethyl)-2-fluorophenyl)pyridin-2-aminium methanesulfonate]
≤ 1	1 to 10	10 to 100	10 to 100	A (A≦0.1)	CS(=O)(=O)O.Nc1ccc(-c2ccc(CC(=O)Nn3cc(C(F)(F)F)cn3)cc2)cn1 [Example 126, 5-(4-(2-oxo-2-(4-(trifluoromethyl)-1H-pyrazol-1-ylamino)ethyl)phenyl)pyridin-2-aminium methanesulfonate]
≤ 1	1 to 10	≤ 10	1 to 10	B (0.1<B≦0.2 nM)	CC1(c2cc(NC(=O)Cc3ccc(-c4cnc(N)c(Cl)c4)cc3)no2)COC1.CS(=O)(=O)O [Example 128, 3-chloro-5-(4-(2-((5-(3-methyloxetan-3-yl)isoxazol-3-yl)amino)-2-oxoethyl)phenyl)pyridin-2-aminium methanesulfonate]
≤ 1	1 to 10	≤ 10	1 to 10	A (A≦0.1)	CC(C)(C)c1cc(NC(=O)Cc2ccc(-c3ccc(N)nc3Cl)cc2)no1.CS(=O)(=O)O [Example 132, 5-(4-(2-(5-tert-butylisoxazol-3-ylamino)-2-oxoethyl)phenyl)-6-chloropyridin-2-aminium methanesulfonate]
≤ 1	1 to 10	≤ 10	≤ 1	B (0.1<B≦0.2 nM)	CS(=O)(=O)O.Nc1ncc(-c2ccc(CC(=O)Nc3cc(C4(C(F)(F)F)CC4)on3)cc2)cc1Cl [Example 133, 3-chloro-5-(4-(2-oxo-2-(5-(1-(trifluoromethyl)cyclopropyl)isoxazol-3-ylamino)ethyl)phenyl)pyridin-2-aminium methanesulfonate]
≤ 1	≤ 1	≤ 10	1 to 10	A (A≦0.1)	CC1(c2cc(NC(=O)Cc3ccc(-c4ccc(N)nc4F)cc3)no2)CC1 [Example 134, 2-(4-(6-amino-2-fluoropyridin-3-yl)phenyl)-N-(5-(1-methylcyclopropyl)isoxazol-3-yl)acetamide]
≤ 1	1 to 10	≤ 10	1 to 10	B (0.1<B≦0.2 nM)	CC1(c2cc(NC(=O)Cc3ccc(-c4cnc(N)c(C(F)(F)F)c4)cc3)no2)COC1.CS(=O)(=O)O [Example 135, 5-(4-(2-((5-(3-methyloxetan-3-yl)isoxazol-3-yl)amino)-2-oxoethyl)phenyl)-3-(trifluoromethyl)pyridin-2-aminium methanesulfonate]

— US20130035326A1 (AMBIT BIOSCIENCES CORPORATION, priority 2009, published 2013)
